In one assay the target is Myosin II (EDTA). Put plainly: ATPase activity assay, specificity panel (EDTA activated ATPase). The class given is biochemical. The note with it: read-out: Concentration causing 50% inhibition of enzymatic activity (C50). Here is the method: (§1) One such ATPase assay is described in the examples below. In one preferred embodiment, the ATPase activity assay utilizes 0.3 M PCA (perchloric acid) and malachite green reagent (8.27 mM sodium molybdate II, 0.33 mM malachite green oxalate, and 0.8 mM Triton X-100). To perform the assay, 10 μL of reaction is quenched in 90 μl of cold 0.3 M PCA. Phosphate standards are used so data can be converted to mM inorganic phosphate released.
(§2) When all reactions and standards have been quenched in PCA, 100 μl of malachite green reagent is added to the to relevant wells in e.g., a microtiter plate. The mixture is developed for 10-15 minutes and the plate is read at an absorbance of 650 nm. If phosphate standards were used, absorbance readings can be converted to mM Pi and plotted over time.
(§3) […]

A further assay deals with T1, kinesin (K-ADP state) (Drosophila melanogaster, UniProt P17210).
T1 construct: kinesin heavy chain fragment containing amino acids 5-351 of the wild type protein; hexahistidine (C); made in house; host or cells: bacterial cells (IPTG induced)
T1 sequence (P17210 5-351): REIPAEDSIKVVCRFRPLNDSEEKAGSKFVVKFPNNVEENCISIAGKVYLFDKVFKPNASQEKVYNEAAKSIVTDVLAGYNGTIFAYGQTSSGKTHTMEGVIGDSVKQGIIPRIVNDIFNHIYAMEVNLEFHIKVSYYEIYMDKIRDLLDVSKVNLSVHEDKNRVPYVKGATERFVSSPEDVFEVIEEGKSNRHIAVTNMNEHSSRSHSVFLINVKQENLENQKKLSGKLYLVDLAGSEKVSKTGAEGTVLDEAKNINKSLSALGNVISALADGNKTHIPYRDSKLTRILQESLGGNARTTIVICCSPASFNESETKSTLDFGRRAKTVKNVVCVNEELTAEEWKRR
Nature of the assay: ADP release from kinesin. The assay is classed as biochemical. The settings on record: varying concentrations of adociasulfate. The method, then:
(§4) All kinetic and binding measurements were performed on a bacterially expressed Drosophila kinesin heavy chain fragment containing amino acids 5-351 of the wild type protein and a hexahistidine tag at the C-terminus. Protein was purified from the soluble fraction of IPTG induced bacterial cells by a single round of affinity chromatography on Ni—NTA-agarose (Qiagen), concentrated by microfiltration, and frozen in small aliquots in liquid nitrogen.
The percent of ADP released from the enzyme was determined by the methods of Hackney (see, e.g., Hackney (1994) J. Biol. Chem., […]: 16508-16511). Briefly, 80 μM kinesin was preincubated with α-^32PATP at room temperature for 15 min and than stored on ice. 1 μl aliquots of that mixture were diluted into 100 μl of “chase mix” containing 0.5 mg/ml pyruvate kinase, 2 mM phosphoenalpyruvate, and varying concentrations of adociasulfate. […] The amount of ADP that became accessible to pyruvate kinase and was converted to ATP was determined by a thin layer chromatography on PEI-cellulose followed by phosphoimager quantitation.
Microtubule binding to kinesin induced 1,000-fold stimulation of the basal ATPase rate, owing primarily to accelerated ADP release. […] The adociasulfate concentration at 50% of maximum burst is much higher than the K1 determined in steady state microtubule competition assays. […]

Another assay addresses rabbit kidney ATPase. Put plainly: ATPase activity assay, specificity panel. The class given is biochemical. The note with it: highest used inhibitor concentration 136 μM, read-out: Concentration causing 50% inhibition of enzymatic activity (C50). The method, then:
as §1, §2, §3

A further assay deals with T2, basal kinesin ATPase (Drosophila melanogaster, UniProt P17210).
T2 construct: kinesin heavy chain fragment containing amino acids 5-351 of the wild type protein; hexahistidine (C); made in house; host or cells: bacterial cells (IPTG induced)
T2 sequence (P17210 5-351): T1 sequence (P17210 5-351)
Put plainly: Basal (non microtubule-stimulated) kinesin ATPase rate, coupled enzymatic assay. The note with it: absence of microtubules; up to 136 μM (the highest tested). The class given is biochemical. Here is the method:
as §4
(§5) Initial rate measurements were done at room temperature using a malachite green assay (Geladopoulos et al. (1991) Anal. Biochem., 192: 112-116) modified to work in 96 well microtiter plates and scored on a plate reader at 650 nm. ATP concentration dependence and basal ATPase rate were determined by a coupled enzymatic assay with pyruvate kinase and lactate dehydrogenase monitoring changes in absorbance at 340 nm. Phosphate standards (650 μM-7 μM) were included with each reading.
In contrast, varying the ATP concentration had no effect on the overall shape of the kinetic curves. […] An additional argument against adociasulfate binding at the nucleotide pocket comes from the lack of an inhibitory effect on the basal, non microtubule-stimulated rate of the kinesin ATPases. If adociasulfate interfered with nucleotide binding, or locked the enzyme in a particular nucleotide-bound state, ATP turnover in the absence of microtubule should be decreased.

The next assay addresses TI-γ. Nature of the assay: ATPase activity assay, specificity panel. The settings on record: at 2 μM tubulin, read-out: Concentration causing 50% inhibition of enzymatic activity (C50). The assay is classed as biochemical, Thermomyces lanuginosus. The method, then:
as §1, §2
TI-γ (a kinesin superfamily member from the fungus Thermomyces lanuginosus) was adsorbed to a glass coverslip and supplemented with a mixture of microtubules, 2 mM Mg-ATP, and sponge extracts in DMSO (5% final concentration). Motility was scored visually on a Zeiss Axioplan microscope sat up for DIC and fitted with an Argus 10 video processor (Hamamatsu).
Initial rate measurements were done at room temperature using a malachite green assay (Geladopoulos et al. (1991) Anal. Biochem., 192: 112-116) modified to work in 96 well microtiter plates and scored on a plate reader at 650 nm. […]

In assay [1] the target is T3, microtubule stimulated ATPase of kinesin (Drosophila melanogaster, UniProt P17210).
T3 construct: kinesin heavy chain fragment containing amino acids 5-351 of the wild type protein; hexahistidine (C); made in house; host or cells: bacterial cells (IPTG induced)
T3 sequence (P17210 5-351): T1 sequence (P17210 5-351)
Put plainly: Microtubule-stimulated kinesin ATPase, steady state kinetics. The assay is classed as biochemical. The method, then: as §4, §5
Extracts from 268 marine sponges were initially tested for their ability to disrupt normal behavior of microtubules in a gliding motility assay. This screening method allowed immediate distinction between substances that affected microtubule movement and those that caused microtubule depolymerization or breakage. Active extracts from the initial screening were then tested for inhibition of the microtubule-stimulated kinesin ATPase.

Assay [2] addresses T4, kinesin binding to microtubules (Drosophila melanogaster, UniProt P17210).
T4 construct: kinesin heavy chain fragment containing amino acids 5-351 of the wild type protein; hexahistidine (C); made in house; host or cells: bacterial cells (IPTG induced)
T4 sequence (P17210 5-351): T1 sequence (P17210 5-351)
Put plainly: Kinesin-microtubule co-sedimentation assay with AMP-PNP. The note with it: co-sedimentation in the presence of AMP-PNP. Here is the method: as §4
This was tested by performing a kinesin-microtubule co-sedimentation assay in the presence of a nonhydrolysable ATP analog, AMP-PNP, with or without adociasulfate.

Each structure is given as a SMILES string. Bounds are passed on as bounds.

In the case of `CC1(C)CCC[C@]2(C)O[C@H]3CC[C@@]4(C)[C@@H](CC[C@]5(C)[C@@H]4CC[C@]4(C)c6c(OS(=O)(=O)O)ccc(OS(=O)(=O)O)c6C[C@@H]54)[C@]3(C)CC[C@@H]12` [adociasulfate], the IC50 on Myosin II (EDTA) was 75 µM; on rabbit kidney ATPase, > 136 µM; at TI-γ it was 2 µM. The “ADP release from kinesin” value at kinesin (K-ADP state) is reported as “bursts of ADP release were observed”. The “Effect on basal ATPase rate” value on basal kinesin ATPase is “did not inhibit the basal ATPase rate”. Also, the Mode of inhibition entry in assay [1] (steady state kinetic measurements, varying microtubule concentration) was “competitive with microtubules”. Also, in assay [1] (varying ATP concentration, higher adociasulfate concentrations), the Vmax result is “progressively lower”. For the same molecule, in assay [2], the “Effect on binding of kinesin to microtubules” value is listed as “abolished binding of kinesin to microtubules”.

The values above are taken from patent publication US7252950B1, “Assays for detecting modulators of cytoskeletal function” (priority 1997, dated 2007).
